Laboratory results published in US4929542A, “In vitro screening test for mutagenicity and genotoxicity during spermatogenesis” (Cornell Research Foundation, Inc., priority 1987, dated 1990).
Like-named read-outs stand apart in the source and are kept apart here.

Legend:
[1] = test system: Xenopus laevis testis explants (round spermatids); experiment: In vitro spermatid micronucleus assay (percent round spermatids with micronuclei in cultured testis explants); settings: for relative in vitro clastogenic potency: day 30 micronucleus counts vs product of mutagen dose and exposure time (FIG. 7)
[2] = test system: chromosome aberrations, meiotic prophase; settings: male mouse; cited from earlier work

COc1cccc2c1C(=O)c1c(O)c3c(c(O)c1C2=O)C[C@@](O)(C(=O)CO)C[C@@H]3O[C@H]1C[C@H](N)[C@H](O)[C@H](C)O1 [AD, adriamycin]
concentration at which assay was sensitive to clastogenesis ([1]; AD, 4 hr exposure, day 22, = 0.58 mg/L): 10^-6 M
concentration at which assay was sensitive to clastogenesis ([1]; AD, 4 hr exposure, day 30, = 58 μg/L): 10^-7 M
increase in spermatid micronuclei ([1]; AD, 4 hr exposure, days 22 and 30, unmodified XSCM (Table 6)): dose-dependent increase in spermatid micronuclei on both days 22 and 30
spermatocyte stages most sensitive to clastogenesis ([1]; AD, 4 hrs exposure (Table 5)): leptotene (day 23) and premeiotic S or type B spermatogonia (day 30)
increase in spermatid micronuclei ([1]; AD, 4 hrs exposure, each time point (Table 5)): dose-dependent increases in spermatid micronuclei at each time point examined
increase in assay sensitivity on increasing exposure ([1]; AD, exposure increased from 4 hrs. to 12 hrs.): 1.7 fold

O=P1(N(CCCl)CCCl)NCCCO1 (stereo not shown) [CP, cyclophosphamide]
induction of chromosome aberrations [2]: induction of chromosome aberrations throughout meiotic prophase
Micronucleus % [1]: .15 +/- .06%
induction of spermatid micronuclei relative to concurrent controls [1]: did not result in a significant induction of spermatid micronuclei
Percent Round Spermatids With Micronuclei ([1]; CP 10^-4 moles/L, 24 hr incubation, post-CP culture Day 2): .30 +/- .14%
Percent Round Spermatids With Micronuclei ([1]; CP 10^-4 moles/L, 24 hr incubation, post-CP culture Day 5): .29 +/- .14%
Percent Round Spermatids With Micronuclei ([1]; CP 10^-4 moles/L, 24 hr incubation, post-CP culture Day 8): .29 +/- .13%
Percent Round Spermatids With Micronuclei ([1]; CP 10^-4 moles/L, 24 hr incubation, post-CP culture Day 21): .25 +/- .07%
Percent Round Spermatids With Micronuclei ([1]; CP 10^-4 moles/L, 24 hr incubation, post-CP culture Day 29, p < .001): 2.70 +/- .13%
Micronucleus % ([1]; CP 10^-4 moles/L, 72 hr incubation, cultured 6 days after): .27 +/- .11%
Percent Round Spermatids With Micronuclei ([1]; CP 10^-5 moles/L, 24 hr incubation, post-CP culture Day 2): .20 +/- .01%
Percent Round Spermatids With Micronuclei ([1]; CP 10^-5 moles/L, 24 hr incubation, post-CP culture Day 5): .19 +/- .01%
Percent Round Spermatids With Micronuclei ([1]; CP 10^-5 moles/L, 24 hr incubation, post-CP culture Day 8): .29 +/- .14%
Percent Round Spermatids With Micronuclei ([1]; CP 10^-5 moles/L, 24 hr incubation, post-CP culture Day 15): .38 +/- .26%
Percent Round Spermatids With Micronuclei ([1]; CP 10^-5 moles/L, 24 hr incubation, post-CP culture Day 21): .41 +/- .16%
Percent Round Spermatids With Micronuclei ([1]; CP 10^-5 moles/L, 24 hr incubation, post-CP culture Day 29, P < .01): 1.90 +/- .43%
Micronucleus % ([1]; CP 10^-5 moles/L, 72 hr incubation, cultured 6 days after): .19 +/- .01%
Percent Round Spermatids With Micronuclei ([1]; CP 10^-6 moles/L, 24 hr incubation, post-CP culture Day 2): .37 +/- .28%
Percent Round Spermatids With Micronuclei ([1]; CP 10^-6 moles/L, 24 hr incubation, post-CP culture Day 5): .37 +/- .29%
Percent Round Spermatids With Micronuclei ([1]; CP 10^-6 moles/L, 24 hr incubation, post-CP culture Day 8): .15 +/- .06%
Percent Round Spermatids With Micronuclei ([1]; CP 10^-6 moles/L, 24 hr incubation, post-CP culture Day 15): .49 +/- .13%
Percent Round Spermatids With Micronuclei ([1]; CP 10^-6 moles/L, 24 hr incubation, post-CP culture Day 21): .35 +/- .07%
Percent Round Spermatids With Micronuclei ([1]; CP 10^-6 moles/L, 24 hr incubation, post-CP culture Day 29, p < .05): .99 +/- .01%
Micronucleus % ([1]; CP 10^-6 moles/L, 72 hr incubation, cultured 6 days after): .14 +/- .06%
induction of spermatid micronuclei ([1]; CP, 24 hr incubation, 29 days after exposure): dose-dependent increase in spermatid micronuclei
lowest effective dose (spermatid micronuclei) ([1]; CP, 24 hr incubation, 29 days after exposure, = […]): 10^-6 M
increase in micronuclei in spermatids from pachytene through diplotene stages ([1]; CP, 72 hr incubation, 6 days culture): did not result in significant increases in micronuclei
stage restriction of clastogenesis ([1]; CP, cultured testes): restriction of CP clastogenesis to premeiotic stages
stage of cells affected (aberrations) ([1]; CP, in vitro exposure of testis explants): induces aberrations in cells that require 24 to 30 days to develop into round spermatids
relative in vitro clastogenic potency [1]: AD>CP>DMBA

Cc1c2ccccc2c(C)c2c1ccc1ccccc12 [DMBA, 9,10-dimethyl-1,2-benzanthracene]
Percent Round Spermatids With Micronuclei ([1]; DMBA 10^-4 moles/L, 24 hr incubation, post-DMBA culture Day 2): .16 +/- .04%
Percent Round Spermatids With Micronuclei ([1]; DMBA 10^-4 moles/L, 24 hr incubation, post-DMBA culture Day 5): .15 +/- .06%
Percent Round Spermatids With Micronuclei ([1]; DMBA 10^-4 moles/L, 24 hr incubation, post-DMBA culture Day 8): .17 +/- .05%
Percent Round Spermatids With Micronuclei ([1]; DMBA 10^-4 moles/L, 24 hr incubation, post-DMBA culture Day 15): .48 +/- .12%
Percent Round Spermatids With Micronuclei ([1]; DMBA 10^-4 moles/L, 24 hr incubation, post-DMBA culture Day 22): .28 +/- .12%
Percent Round Spermatids With Micronuclei ([1]; DMBA 10^-4 moles/L, 24 hr incubation, post-DMBA culture Day 29, p < .001): 1.07 +/- .14%
fold increase in spermatid micronucleus frequency, 72 hr relative to 24 hr incubation ([1]; DMBA 10^-5 M (2.6 mg/L), culture day 30): 3 fold
Percent Round Spermatids With Micronuclei ([1]; DMBA 10^-5 moles/L, 24 hr incubation, post-DMBA culture Day 2): .19 +/- .01%
Percent Round Spermatids With Micronuclei ([1]; DMBA 10^-5 moles/L, 24 hr incubation, post-DMBA culture Day 5): .16 +/- .06%
Percent Round Spermatids With Micronuclei ([1]; DMBA 10^-5 moles/L, 24 hr incubation, post-DMBA culture Day 8): .39 +/- .28%
Percent Round Spermatids With Micronuclei ([1]; DMBA 10^-5 moles/L, 24 hr incubation, post-DMBA culture Day 15): .20 +/- .001%
Percent Round Spermatids With Micronuclei ([1]; DMBA 10^-5 moles/L, 24 hr incubation, post-DMBA culture Day 22): .48 +/- .13%
Percent Round Spermatids With Micronuclei ([1]; DMBA 10^-5 moles/L, 24 hr incubation, post-DMBA culture Day 29, p < .01): .83 +/- .06%
Percent Round Spermatids With Micronuclei ([1]; DMBA 10^-6 moles/L, 24 hr incubation, post-DMBA culture Day 2): .28 +/- .13%
Percent Round Spermatids With Micronuclei ([1]; DMBA 10^-6 moles/L, 24 hr incubation, post-DMBA culture Day 5): .15 +/- .06%
Percent Round Spermatids With Micronuclei ([1]; DMBA 10^-6 moles/L, 24 hr incubation, post-DMBA culture Day 8): .16 +/- .06%
Percent Round Spermatids With Micronuclei ([1]; DMBA 10^-6 moles/L, 24 hr incubation, post-DMBA culture Day 15): .39 +/- .01%
Percent Round Spermatids With Micronuclei ([1]; DMBA 10^-6 moles/L, 24 hr incubation, post-DMBA culture Day 22): .30 +/- .14%
Percent Round Spermatids With Micronuclei ([1]; DMBA 10^-6 moles/L, 24 hr incubation, post-DMBA culture Day 29, p < .05): .68 +/- .01%
Percent Round Spermatids With Micronuclei ([1]; DMBA 10^-7 moles/L, 24 hr incubation, 0.1% DMSO, post-DMBA culture Day 2, mean +/- s.d., n=2): .29 +/- .14%
Percent Round Spermatids With Micronuclei ([1]; DMBA 10^-7 moles/L, 24 hr incubation, post-DMBA culture Day 5): .16 +/- .06%
Percent Round Spermatids With Micronuclei ([1]; DMBA 10^-7 moles/L, 24 hr incubation, post-DMBA culture Day 8): .21 +/- .02%
Percent Round Spermatids With Micronuclei ([1]; DMBA 10^-7 moles/L, 24 hr incubation, post-DMBA culture Day 15): .28 +/- .13%
Percent Round Spermatids With Micronuclei ([1]; DMBA 10^-7 moles/L, 24 hr incubation, post-DMBA culture Day 22): .19 +/- .02%
Percent Round Spermatids With Micronuclei ([1]; DMBA 10^-7 moles/L, 24 hr incubation, post-DMBA culture Day 29): .36 +/- .05%
increase in spermatid micronucleus frequency ([1]; DMBA, 24 hr exposure): dose-dependent increase in the spermatid micronucleus frequency only after 29 additional days of culture
Percent Round Spermatids With Micronuclei ([1]; Table 4: DMBA 10^-5 moles/L, 24 hr incubation, subsequent culture 29 days, P < .05): .86 +/- .10%
Percent Round Spermatids With Micronuclei ([1]; Table 4: DMBA 10^-5 moles/L, 72 hr incubation, subsequent culture 27 days, P < .001): 2.52 +/- .44%
relative in vitro clastogenic potency [1]: AD>CP>DMBA
